In patent US20240252506A1 (Hoffmann-La Roche Inc., priority 2021, published 2024):
In brackets after ≈: the same amount, converted by molar mass. Where a name gives a salt, the structure may show the parent alone.

System: Escherichia coli ATCC 25922
Test: Minimal Inhibitory Concentration (MIC) determination, broth microdilution (CLSI M07-A10)
Type: cell-based
Settings: Escherichia coli, ATCC25922, strain Escherichia coli ATCC 25922, 18-24 hours at 35±2° C., lowest concentration for complete growth inhibition (no visible growth), read-out: Escherichia coli growth inhibition MIC
Outline: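 Broth microdilution per CLSI M07-A10; compounds in 2-fold serial dilutions; inoculum from 0.5 McFarland suspension diluted 1:200 in broth. Incubated 18-24 h at 35±2° C in ambient air; MIC (μg/mL) taken as lowest concentration giving no visible growth.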

| SMILES | MIC [µg/mL] |
| --- | --- |
| CNCCn1nc2c(F)c3c(c(F)c2n1)CC(CN1CCC2(CC1)CN(c1cnc4c(n1)NC(=O)CO4)C(=O)O2)C3.O=CO [Example 117, 6-[8-[[4,8-difluoro-2-[2-(methylamino)ethyl]-6,7-dihydro-5H-cyclopenta[f]benzotriazol-6-yl]methyl]-2-oxo-1-oxa-3,8-diazaspiro[4.5]decan-3-yl]-4H-pyrazino[2,3-b][1,4]oxazin-3-one; formic acid] | 0.25 |
| CO[C@@H]1CN[C@@H](c2nc3c(F)c4c(c(F)c3[nH]2)CC(CN2CCC3(CC2)CN(c2cnc5c(n2)NC(=O)CO5)C(=O)O3)C4)C1 [Example 37, 6-[8-[[4,8-difluoro-2-[(2R,4S)-4-methoxypyrrolidin-2-yl]-3,5,6,7-tetrahydrocyclopenta[f]benzimidazol-6-yl]methyl]-2-oxo-1-oxa-3,8-diazaspiro[4.5]decan-3-yl]-4H-pyrazino[2,3-b][1,4]oxazin-3-one] | 0.25 (≈ 0.409 µM) |
| C[C@H](C(=O)NCCn1nnc2c(F)c3c(c(F)c21)CC(CN1CCC2(CC1)CN(c1cnc4c(n1)NC(=O)CO4)C(=O)O2)C3)N(C)C (stereo partly drawn) [Example 149, (2R)—N-[2-[4,8-Difluoro-6-[[2-oxo-3-(3-oxo-4H-pyrazino[2,3-b][1,4]oxazin-6-yl)-1-oxa-3,8-diazaspiro[4.5]decan-8-yl]methyl]-6,7-dihydro-5H-cyclopenta[f]benzotriazol-1-yl]ethyl]-2-(dimethylamino)propanamide] | 1 (≈ 1.53 µM) |
| O=C(O)C(F)(F)F.O=C1COc2ncc(N3CC(CCNCC4Cc5c(c(F)c6[nH]c([C@@H]7C[C@@H](O)CN7)nc6c5F)C4)OC3=O)nc2N1 (stereo partly drawn) [Example 47, 6-[5-[2-[[4,8-difluoro-2-[(2S,4R)-4-hydroxypyrrolidin-2-yl]-3,5,6,7-tetrahydrocyclopenta[f]benzimidazol-6-yl]methylamino]ethyl]-2-oxo-oxazolidin-3-yl]-4H-pyrazino[2,3-b][1,4]oxazin-3-one; 2,2,2-trifluoroacetic acid] | 2 |
| O=C1COc2ncc(N3CC4(CCN(CC5Cc6c(c(F)c7[nH]c(CN8CCOCC8)nc7c6F)C5)CC4)OC3=O)nc2N1 [Example 8, 6-[8-[[4,8-difluoro-2-(morpholinomethyl)-3,5,6,7-tetrahydrocyclopenta[f]benzimidazol-6-yl]methyl]-2-oxo-1-oxa-3,8-diazaspiro[4.5]decan-3-yl]-4H-pyrazino[2,3-b][1,4]oxazin-3-one] | 1 (≈ 1.64 µM) |
| O=C1COc2ncc(N3CC4(CCN(CC5Cc6c(c(F)c7[nH]c(C89CC(CN8)C9)nc7c6F)C5)CC4)OC3=O)nc2N1 [Example 34, 6-[8-[[2-(2-azabicyclo[2.1.1]hexan-1-yl)-4,8-difluoro-3,5,6,7-tetrahydrocyclopenta[f]benzimidazol-6-yl]methyl]-2-oxo-1-oxa-3,8-diazaspiro[4.5]decan-3-yl]-4H-pyrazino[2,3-b][1,4]oxazin-3-one] | 0.25 (≈ 0.422 µM) |
| O=C1COc2ccc(N3CC4(CCN(CC5Cc6cc7nc(C8CNC8)oc7c(F)c6C5)CC4)OC3=O)nc2N1 (single isomer, unassigned) [Example 111, 6-[8-[[2-(azetidin-3-yl)-8-fluoro-6,7-dihydro-5H-cyclopenta[f][1,3]benzoxazol-6-yl]methyl]-2-oxo-1-oxa-3,8-diazaspiro[4.5]decan-3-yl]-4H-pyrido[3,2-b][1,4]oxazin-3-one] | 0.5 (≈ 0.911 µM) |
| N[C@H]1COC[C@@H]1c1nc2c(F)c3c(c(F)c2[nH]1)CC(CN1CCC2(CC1)CN(c1cnc4c(n1)NC(=O)CO4)C(=O)O2)C3 [Example 31, 6-[8-[[4,8-difluoro-2-[(3S,4R)-4-aminotetrahydrofuran-3-yl]-3,5,6,7-tetrahydrocyclopenta[f]benzimidazol-6-yl]methyl]-2-oxo-1-oxa-3,8-diazaspiro[4.5]decan-3-yl]-4H-pyrazino[2,3-b][1,4]oxazin-3-one] | 0.25 (≈ 0.419 µM) |

The remaining lines, values ahead:

| MIC [µg/mL] | SMILES |
| --- | --- |
| 0.125 (≈ 0.219 µM) | CNCCn1nnc2c(F)c3c(c(F)c21)CC(CN1CCC2(CC1)CN(c1cnc4c(n1)NC(=O)CO4)C(=O)O2)C3 (single isomer, unassigned) [Example 118, 6-[2-oxo-8-[[4,8-difluoro-1-[2-(methylamino)ethyl]-6,7-dihydro-5H-cyclopenta[f]benzotriazol-6-yl]methyl]-1-oxa-3,8-diazaspiro[4.5]decan-3-yl]-4H-pyrazino[2,3-b][1,4]oxazin-3-one] |
| 0.5 (≈ 0.883 µM) | O=C1COc2ncc(N3CC4(CCN(CC5Cc6c(c(F)c7c(nc8n7CCNC8)c6F)C5)CC4)OC3=O)nc2N1 (stereo not drawn) [Example 23, 6-[8-[(10,16-difluoro-2,5,8-triazatetracyclo[7.7.0.02,7.011,15]hexadeca-1(9),7,10,15-tetraen-13-yl)methyl]-2-oxo-1-oxa-3,8-diazaspiro[4.5]decan-3-yl]-4H-pyrazino[2,3-b][1,4]oxazin-3-one] |
| 0.5 (≈ 0.928 µM) | Nc1cnc2c(F)c3c(c(F)c2n1)CC(CN1CCC2(CC1)CN(c1cnc4c(n1)NC(=O)CO4)C(=O)O2)C3 (stereo not drawn) [Example 39, 6-[8-[(3-amino-5,9-difluoro-7,8-dihydro-6H-cyclopenta[g]quinoxalin-7-yl)methyl]-2-oxo-1-oxa-3,8-diazaspiro[4.5]decan-3-yl]-4H-pyrazino[2,3-b][1,4]oxazin-3-one] |
| 1 (≈ 1.73 µM) | N[C@H]1COC[C@@H]1c1nc2cc3c(c(F)c2o1)CC(CN1CCC2(CC1)CN(c1cnc4c(n1)NC(=O)CO4)C(=O)O2)C3 (stereo partly drawn) [Example 138, 6-[8-[[2-[(3R,4R)-4-Aminotetrahydrofuran-3-yl]-8-fluoro-6,7-dihydro-5H-cyclopenta[f][1,3]benzoxazol-6-yl]methyl]-2-oxo-1-oxa-3,8-diazaspiro[4.5]decan-3-yl]-4H-pyrazino[2,3-b][1,4]oxazin-3-one] |
| ≤ 0.06 | NCCn1nnc2c(F)c3c(c(F)c21)CC(CN1CCC2(CC1)CN(c1cnc4c(n1)NC(=O)CO4)C(=O)O2)C3 (stereo not drawn) [Example 42, 6-[8-[[1-(2-aminoethyl)-4,8-difluoro-6,7-dihydro-5H-cyclopenta[f]benzotriazol-6-yl]methyl]-2-oxo-1-oxa-3,8-diazaspiro[4.5]decan-3-yl]-4H-pyrazino[2,3-b][1,4]oxazin-3-one] |
| 0.125 (≈ 0.225 µM) | CNCc1nc2c(F)c3c(c(F)c2[nH]1)CC(CN1CCC2(CC1)CN(c1cnc4c(n1)NC(=O)CO4)C(=O)O2)C3 [Example 9, 6-[8-[[4,8-Difluoro-2-(methylaminomethyl)-3,5,6,7-tetrahydrocyclopenta[f]benzimidazol-6-yl]methyl]-2-oxo-1-oxa-3,8-diazaspiro[4.5]decan-3-yl]-4H-pyrazino[2,3-b][1,4]oxazin-3-one] |
| 0.5 (≈ 0.902 µM) | CN[C@H](C)c1nc2c(F)c3c(c(F)c2[nH]1)CC(CNC1CC2(C1)CN(c1cnc4c(n1)NC(=O)CO4)C(=O)O2)C3 (stereo partly drawn) [Example 26, 6-[2-[[4,8-difluoro-2-[(1R)-1-(methylamino)ethyl]-3,5,6,7-tetrahydrocyclopenta[f]benzimidazol-6-yl]methylamino]-6-oxo-5-oxa-7-azaspiro[3.4]octan-7-yl]-4H-pyrazino[2,3-b][1,4]oxazin-3-one] |
| 0.125 (≈ 0.215 µM) | CN(C)CCc1nc2c(F)c3c(c(F)c2[nH]1)CC(CN1CCC2(CC1)CN(c1cnc4c(n1)NC(=O)CO4)C(=O)O2)C3 [Example 7, 6-[8-[[2-[2-(dimethylamino)ethyl]-4,8-difluoro-3,5,6,7-tetrahydrocyclopenta[f]benzimidazol-6-yl]methyl]-2-oxo-1-oxa-3,8-diazaspiro[4.5]decan-3-yl]-4H-pyrazino[2,3-b][1,4]oxazin-3-one] |

Same assay, conditions: strain Escherichia coli ATCC 25922, 18-24 hours at 35±2° C., lowest concentration for complete growth inhibition (no visible growth)

| Escherichia coli growth inhibition MIC [µg/mL] | SMILES |
| --- | --- |
| 1 | CN(CCn1nnc2c(F)c3c(c(F)c21)CC(CN1CCC2(CC1)CN(c1cnc4c(n1)NC(=O)CO4)C(=O)O2)C3)C(=O)CN (single isomer, unassigned) [Example 167, 2-Amino-N-methyl-N-[2-[4,8-difluoro-6-[[2-oxo-3-(3-oxo-4H-pyrazino[2,3-b][1,4]oxazin-6-yl)-1-oxa-3,8-diazaspiro[4.5]decan-8-yl]methyl]-6,7-dihydro-5H-cyclopenta[f]benzotriazol-1-yl]ethyl]acetamide] |
| 4 | CC(=O)N(C)CCn1nnc2c(F)c3c(c(F)c21)CC(CN1CCC2(CC1)CN(c1cnc4c(n1)NC(=O)CO4)C(=O)O2)C3 (single isomer, unassigned) [Example 157, N-[2-[4,8-difluoro-6-[[2-oxo-3-(3-oxo-4H-pyrazino[2,3-b][1,4]oxazin-6-yl)-1-oxa-3,8-diazaspiro[4.5]decan-8-yl]methyl]-6,7-dihydro-5H-cyclopenta[f]benzotriazol-1-yl]ethyl]-N-methyl-acetamide] |
| 0.25 | O=C1COc2ncc(N3CC4(CCN(CC5Cc6cc7nc([C@H]8CCN8)oc7c(F)c6C5)CC4)OC3=O)nc2N1 (stereo partly drawn) [Example 140, 6-[8-[[2-[(2R)-azetidin-2-yl]-8-fluoro-6,7-dihydro-5H-cyclopenta[f][1,3]benzoxazol-6-yl]methyl]-2-oxo-1-oxa-3,8-diazaspiro[4.5]decan-3-yl]-4H-pyrazino[2,3-b][1,4]oxazin-3-one] |

Same assay, conditions: strain Escherichia coli ATCC 25922, 18-24 hours at 35±2° C., lowest concentration for complete growth inhibition (no visible growth), dihydrochloride

| SMILES | Escherichia coli growth inhibition MIC [µg/mL] |
| --- | --- |
| NCCn1nc2cc3c(c(F)c2n1)CC(CN1CCC2(CC1)CN(c1ccc4c(n1)NC(=O)CO4)C(=O)O2)C3 (single isomer, unassigned) [Example 133, 6-[2-oxo-8-[[2-(2-aminoethyl)-8-fluoro-6,7-dihydro-5H-cyclopenta[f]benzotriazol-6-yl]methyl]-1-oxa-3,8-diazaspiro[4.5]decan-3-yl]-4H-pyrido[3,2-b][1,4]oxazin-3-one dihydrochloride] | 1 |
| NCCn1nc2cc3c(c(F)c2n1)CC(CN1CCC2(CC1)CN(c1cnc4c(n1)NC(=O)CO4)C(=O)O2)C3 (single isomer, unassigned) [Example 134, 6-[2-oxo-8-[[2-(2-aminoethyl)-8-fluoro-6,7-dihydro-5H-cyclopenta[f]benzotriazol-6-yl]methyl]-1-oxa-3,8-diazaspiro[4.5]decan-3-yl]-4H-pyrazino[2,3-b][1,4]oxazin-3-one dihydrochloride] | 0.125 |
